Biological target: T1, VmFbpA (ferric ion-binding protein A) (Vibrio metschnikovii, UniProt A0A9X0R8I3)
T1 construct: gene H8Q88_11990; WP_004394209.1 without the signal peptide '[…]'; 6× His-tag-free apo VmFbpA
Test: ITC of RA into apo VmFbpA (single-site model); supported by UV-vis peak shift and Fe3+ pull-down inhibition by ICP-MS (IC50 […])

T1 sequence (A0A9X0R8I3 entry or part of it): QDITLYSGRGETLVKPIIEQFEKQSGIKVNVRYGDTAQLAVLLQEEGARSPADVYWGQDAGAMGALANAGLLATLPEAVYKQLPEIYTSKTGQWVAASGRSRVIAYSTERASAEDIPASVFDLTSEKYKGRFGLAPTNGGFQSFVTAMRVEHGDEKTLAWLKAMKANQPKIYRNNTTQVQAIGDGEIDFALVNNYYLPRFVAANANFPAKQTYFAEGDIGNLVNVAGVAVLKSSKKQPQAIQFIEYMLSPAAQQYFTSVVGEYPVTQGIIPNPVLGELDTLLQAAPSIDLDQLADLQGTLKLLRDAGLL

O=C(/C=C/c1ccc(O)c(O)c1)O[C@H](Cc1ccc(O)c(O)c1)C(=O)O [RA, rosmarinic acid]
Kd: 8 ± 1 µM
